# Laboratory results: patent EP0848706B1, “SUBSTITUTED BENZENE-FUSED HETEROCYCLICS AS NEUROKININ ANTAGONISTS” (SCHERING CORPORATION, priority 1995, dated 1996)
# Read-outs that look alike come from different tables or passages of the source.
# How the values were obtained:
# human NK-2 receptor = target: T1, human NK-2 receptor (Homo sapiens, UniProt P21452); assay: Neurokinin receptor binding assay, NK-2 ([3H]-Neurokinin A, CHO cell membranes); conditions: for Ki: Ki according to Cheng and Prusoff from competition binding curves, read-out: Ki (NK2); for inhibition at 1 µM: read-out: % Inhibition NK2 (1µM dose)
# T1 construct: expressed in transfected cells; host or cells: Chinese Hamster ovary (CHO) cells
# T1 sequence (P21452 1-398): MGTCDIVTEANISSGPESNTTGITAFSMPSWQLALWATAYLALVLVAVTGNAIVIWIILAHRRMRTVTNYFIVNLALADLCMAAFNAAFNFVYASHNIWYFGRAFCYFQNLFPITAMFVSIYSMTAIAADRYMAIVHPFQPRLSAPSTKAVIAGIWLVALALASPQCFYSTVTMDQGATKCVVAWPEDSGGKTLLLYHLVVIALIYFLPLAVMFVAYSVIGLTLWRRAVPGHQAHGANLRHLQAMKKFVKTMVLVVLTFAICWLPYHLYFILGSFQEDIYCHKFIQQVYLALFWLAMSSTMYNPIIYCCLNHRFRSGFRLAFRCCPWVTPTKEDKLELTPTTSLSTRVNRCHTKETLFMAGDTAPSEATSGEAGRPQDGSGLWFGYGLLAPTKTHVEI
# Protocol: (§1) Chinese Hamster ovary (CHO) cells transfected with the coding regions for the human neurokinin 1 (NK1) of the human neurokinin 2 (NK2) receptors are grown in Dulbecco's minimal essential medium supplemented with 10% fetal calf serum, 0.1 mM non-essential amino acids, 2 mM glutamine, 100units/ml of penicillin and streptomycin, and 0.8 mg of G418/ml at 37°C in a humidified atmosphere containing 5% CO2.
# (§2) Cells are detached from T-175 flasks with a sterile solution containing 5mM EDTA in phosphate buffered saline. Cells are harvested by centrifugation and washed in RPMI media at […] for 5 minutes. The pellet is resuspended inTris-HCl (pH7.4) containing 1 uM phsphoramidon and 4 ug/ml of chymostatin at a cell density of 30 x 10^6 cells/ml. The suspension is then homogenized in a Brinkman Polytron (setting 5) for 30-45 seconds. The homogenate is centrifuged at 800 x g for 5 min at 4°C to collect unbroken cells and nuclei. The supernatant is centrifuged in a Sorvall RC5C at 19,000 rpm ([…]) for 30 min at 4°C. The pellet is resuspended, an aliquot is removed for a protein determination (BCA) and washed again. The resulting pellet is stored at -80°C.
# (§3) To assay receptor binding, 50 µl of [^3H]-Substance P (9-Sar, 11-Met) (specific activity 41 Ci/mmol) (Dupont-NEN) (0.8 nM for the NK-1 assay) or [^3H]-Neurokinin A (specific activity 114 Ci/ mmole) (Zenca) (1.0 nM for the NK-2 assay) is added to tubes containing buffer (50 mM Tris-HCl (pH 7.4) with 1 mM MnCl2 and 0.2% Bovine Serum Albumin) and either DMSO or test compound. Binding is initiated by the addition of 100µl of membrane (10-20 µg) containing the human NK-1 or NK-2 receptor in a final volume of 200 µl. After 40 minutes at room temperature, the reaction is stopped by rapid filtration onto Whatman GF/C filters which have been presoaked in 0.3% polyethylenimine. Filters are washed 2 times with 3 ml of 50 mM Tris-HCl (pH7.4). Filters are added to 6 mls of Ready-Safe liquid scintillation cocktail and quantified by liquid scintillation spectrometry in a LKB 1219 RackBeta counter. Non-specific binding is determined by the addition of either 1 µM of CP-99994 (NK-1) or 1µM SR-48968 (NK-2) (both synthesized by the chemistry department of Schering-Plough Research Institute). IC50 values are determined from competition binding curves and Ki values are determined according to Cheng and Prusoff using the experimentally determined value of 0.8 nM for the NK-1 receptor and 2.4 nM for the NK-2 receptor.
# (§4) % Inhibition is the difference between the percent of maximum specific binding (MSB) and 100%. The percent of MSB is defined by the following equation, wherein "dpm" is disintegrations per minute: % MSB =((dpm of unknown) - (dpm of nonspecific binding))/((dpm of total binding) - (dpm of nonspecific binding))X 100 [formula]
# human NK-1 receptor = target: T2, human NK-1 receptor (Homo sapiens, UniProt P25103); assay: Neurokinin receptor binding assay, NK-1 ([3H]-Substance P, CHO cell membranes); conditions: for Ki: Ki according to Cheng and Prusoff from competition binding curves, read-out: Ki(NK1); for inhibition at 1 µM: read-out: % Inhibition NK1 (1µM dose)
# T2 construct: expressed in transfected cells; host or cells: Chinese Hamster ovary (CHO) cells
# Protocol: as §1, §2, §3, §4
# NK3 = target: T3, NK3 (Homo sapiens, UniProt P29371); assay: NK3 activity, procedure similar to the literature (Molecular Pharmacol., 48 (1995), p. 711-716); format: binding
# T3 sequence (P29371 1-465): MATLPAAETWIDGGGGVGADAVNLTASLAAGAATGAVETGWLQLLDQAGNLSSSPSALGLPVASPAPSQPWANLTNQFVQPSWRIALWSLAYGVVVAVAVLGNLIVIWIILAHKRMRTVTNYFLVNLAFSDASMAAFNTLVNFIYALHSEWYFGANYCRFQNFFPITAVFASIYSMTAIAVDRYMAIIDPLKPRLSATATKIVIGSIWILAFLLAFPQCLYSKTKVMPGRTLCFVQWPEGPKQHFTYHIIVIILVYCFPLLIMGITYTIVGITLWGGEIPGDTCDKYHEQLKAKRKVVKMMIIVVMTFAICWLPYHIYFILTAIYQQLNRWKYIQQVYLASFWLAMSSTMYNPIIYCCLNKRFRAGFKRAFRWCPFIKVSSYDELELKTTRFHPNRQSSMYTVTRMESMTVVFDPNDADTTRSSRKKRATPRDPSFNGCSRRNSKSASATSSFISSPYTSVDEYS
# Protocol: NK3 activity is determined by following a procedure similar to that described in the literature, e.g., Molecular Pharmacol., 48 (1995), p. 711-716.
# [1] = 1µM dose, % inhibition = 100% minus percent of maximum specific binding
# T2 sequence (P25103 whole entry): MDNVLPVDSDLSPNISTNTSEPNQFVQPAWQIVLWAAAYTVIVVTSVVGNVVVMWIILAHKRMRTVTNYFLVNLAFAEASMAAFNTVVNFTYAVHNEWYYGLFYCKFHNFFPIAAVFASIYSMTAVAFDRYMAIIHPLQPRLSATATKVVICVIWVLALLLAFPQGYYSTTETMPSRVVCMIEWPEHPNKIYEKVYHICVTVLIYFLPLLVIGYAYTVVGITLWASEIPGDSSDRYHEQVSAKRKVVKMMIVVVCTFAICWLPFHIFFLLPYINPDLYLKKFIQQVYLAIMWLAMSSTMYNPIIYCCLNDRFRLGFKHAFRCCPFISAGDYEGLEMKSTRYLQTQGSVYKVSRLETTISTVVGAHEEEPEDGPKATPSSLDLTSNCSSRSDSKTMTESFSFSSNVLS
Ki (human NK-2 receptor),Ki (human NK-1 receptor),inhibition at 1 µM (human NK-2 receptor; [1]),inhibition at 1 µM (human NK-1 receptor; [1]),SMILES,inhibition at 1 µM (human NK-2 receptor),Ki (NK3),inhibition at 1 µM (human NK-1 receptor)
250 nM,23 nM,,,C=CCN(CCc1c[nH]c2ccccc12)CCC(CN(C)C(=O)c1cc(OC)c(OC)c(OC)c1)c1ccc(Cl)c(Cl)c1 (stereo not shown) [Example 9b],,,
59 nM,165 nM,96%,69%,CN(CCc1c[nH]c2ccccc12)CCC(CN(C)C(=O)c1ccc2c(c1)OCO2)c1ccc(Cl)c(Cl)c1 (stereo not shown) [Example 12a],,,
30 nM,233 nM,,,COc1cc(OC)cc(C(=O)N2CCC(CCN(C)CCc3c[nH]c4ccccc34)(c3ccc(Cl)c(Cl)c3)C2)c1 (stereo not shown) [Example 14a],,,

SMILES,Ki (human NK-2 receptor),Ki (human NK-1 receptor),inhibition at 1 µM (human NK-2 receptor; [1]),inhibition at 1 µM (human NK-1 receptor; [1]),inhibition at 1 µM (human NK-2 receptor),Ki (NK3),inhibition at 1 µM (human NK-1 receptor)
COc1cc(C(=O)N(C)CC(CCN(C)CCc2c[nH]c3ccc(F)cc23)c2ccc(Cl)c(Cl)c2)cc(OC)c1OC (racemic) [Example 7c],10 nM,12 nM,,,100%,,
COc1cc(C(=O)N(C)CC(CCN(C)CCc2c[nH]c3ccccc23)c2ccc(Cl)c(Cl)c2)cc(OC)c1OC (stereo not shown) [Example 2],33 nM,25 nM,,,87%,448 nM,81%
